Values quoted from earlier work, collected in publication PMC12241124 (Frontiers in Microbiology, 2025).

Conditions: ref Mygind et al., 2005

For plectasin, the “terminal serum elimination half-life” value is listed as 51 min.
